Reference: patent publication US20190282501A1, “HYDROALCOHOLIC FOAM FORMULATIONS OF NAFTIFINE” (priority 2016, published 2019)
Where a name gives a salt, the structure may show the parent alone. Read-outs that look alike come from different tables or passages of the source.

How the values were obtained:
[1] = after 3m and after 6m at 25° C., 30° C. and 40° C.; stated below Table 6B (Formulation D)
Procedure: The amount of active agent present is analyzed in foam expelled from various pressurized canisters containing foam formulations using HPLC. Analysis is carried out at zero time and at appropriate time intervals thereafter. The canisters are stored in controlled temperature incubators at one or more of 5° C., at 25° C., at, 40° C. and at 50° C. At appropriate time intervals canisters are removed and the amount of active agent in the foam sample is measured.

[2] = Procedure: To generate a foam composition that is capable of maintaining the high solubility of naftifine HCl without needing to add in surfactants, the solubility of the API with various excipients was tested. Naftifine hydrochloride was combined with different solvents to identify which solvents are able to solubilize the API. The objective of this study was to determine which solvents can be useful in the development of formulations where the API is soluble. The objective of this study was not to determine the maximal solubility of the API in the tested solvents.
To prepare the mixtures, the API was added at a 1% w/w concentration to each solvent at room temperature under mixing. Solubility at room temperature was then assessed after 24 hours by determining the presence of API crystals using microscopic observation at ×200 magnification under polarized light. The mixture was then heated to about 80° C. for 10 minutes and mixed. Solubility at 80° C. was assessed by visual observation. The mixture was then cooled to room temperature and solubility was assessed after 24 hours by determining the presence of API crystals using microscopic evaluation at ×200 magnification under polarized light.
The first column in Table 5 relates to the solubility at room temperature before heating to 80° C. The second column relates to the solubility at 80° C. as observed visually. The third column relates to the solubility after the mixture has been heated to 80° C. and cooled down to room temperature.

[3] = in Capric caprylic triglycerides

SMILES: CN(C/C=C/c1ccccc1)Cc1cccc2ccccc12 [naftifine hydrochloride, (E)-N-methyl-N-(1-naphthyl-methyl)-3-phenyl-2-propen-l-amine hydrochloride]
- Stability of naftifine [1]: stable
- Dissolution in hydrophobic solvents ([2]; hydrophobic solvents, even under heating): did not dissolve
- Max. Solubility at RT after heating at 80° C. [2, 3]: <1%
- Maximum Solubility at 80° C. [2, 3]: <1%
- Maximum Solubility at RT [2, 3]: <1%
- Max. Solubility at RT after heating at 80° C. ([2]; in Castor oil): <1%
- Maximum Solubility at 80° C. ([2]; in Castor oil): <1%
- Maximum Solubility at RT ([2]; in Castor oil): <1%
- Max. Solubility at RT after heating at 80° C. ([2]; in Cyclomethicone): <1%
- Maximum Solubility at 80° C. ([2]; in Cyclomethicone): <1%
- Maximum Solubility at RT ([2]; in Cyclomethicone): <1%
- Max. Solubility at RT after heating at 80° C. ([2]; in Diethyl sebacate): <1%
- Maximum Solubility at 80° C. ([2]; in Diethyl sebacate): <1%
- Maximum Solubility at RT ([2]; in Diethyl sebacate): <1%
- Max. Solubility at RT after heating at 80° C. ([2]; in Diisopropyl adipate): <1%
- Maximum Solubility at 80° C. ([2]; in Diisopropyl adipate): <1%
- Maximum Solubility at RT ([2]; in Diisopropyl adipate): <1%
- Max. Solubility at RT after heating at 80° C. ([2]; in Dimethyl isosorbide): <1%
- Maximum Solubility at 80° C. ([2]; in Dimethyl isosorbide): <1%
- Maximum Solubility at RT ([2]; in Dimethyl isosorbide): <1%
- Max. Solubility at RT after heating at 80° C. ([2]; in Dimethyl sulfoxide): >8%
- Maximum Solubility at 80° C. ([2]; in Dimethyl sulfoxide): >8%
- Maximum Solubility at RT ([2]; in Dimethyl sulfoxide): ~2%
- Maximum Solubility at 80° C. ([2]; in Ethanol 95%): >8%
- Maximum Solubility at RT ([2]; in Ethanol 95%): ~4%
- Max. Solubility at RT after heating at 80° C. ([2]; in Ethanol 95%, hydrochloride): >8%
- Max. Solubility at RT after heating at 80° C. ([2]; in Ethanol 95%, listed as naftifine HCl, hydrochloride): higher than 8%
- Max. Solubility at RT after heating at 80° C. ([2]; in Glycerin): ~1%
- Maximum Solubility at 80° C. ([2]; in Glycerin): ~1%
- Maximum Solubility at RT ([2]; in Glycerin): <1%
- Max. Solubility at RT after heating at 80° C. ([2]; in Glycofurol): ~1%
- Maximum Solubility at 80° C. ([2]; in Glycofurol): ~1%
- Maximum Solubility at RT ([2]; in Glycofurol): <1%
- Max. Solubility at RT after heating at 80° C. ([2]; in Hexylene glycol): ~1%
- Maximum Solubility at 80° C. ([2]; in Hexylene glycol): ~1%
- Maximum Solubility at RT ([2]; in Hexylene glycol): <1%
- Max. Solubility at RT after heating at 80° C. ([2]; in Isopropyl alcohol): ~2%
- Maximum Solubility at 80° C. ([2]; in Isopropyl alcohol): ~2%
- Maximum Solubility at RT ([2]; in Isopropyl alcohol): <1%
- Max. Solubility at RT after heating at 80° C. ([2]; in Isopropyl myristate): <1%
- Maximum Solubility at 80° C. ([2]; in Isopropyl myristate): <1%
- Maximum Solubility at RT ([2]; in Isopropyl myristate): <1%
- Max. Solubility at RT after heating at 80° C. ([2]; in Isostearic acid): <1%
- Maximum Solubility at 80° C. ([2]; in Isostearic acid): <1%
- Maximum Solubility at RT ([2]; in Isostearic acid): <1%
- Max. Solubility at RT after heating at 80° C. ([2]; in Mineral oil light): <1%
- Maximum Solubility at 80° C. ([2]; in Mineral oil light): <1%
- Maximum Solubility at RT ([2]; in Mineral oil light): <1%
- Max. Solubility at RT after heating at 80° C. ([2]; in Octyldodecanol): <1%
- Maximum Solubility at 80° C. ([2]; in Octyldodecanol): <1%
- Maximum Solubility at RT ([2]; in Octyldodecanol): <1%
- Max. Solubility at RT after heating at 80° C. ([2]; in Oleic acid): <1%
- Maximum Solubility at 80° C. ([2]; in Oleic acid): <1%
- Maximum Solubility at RT ([2]; in Oleic acid): <1%
- Max. Solubility at RT after heating at 80° C. ([2]; in Oleyl alcohol): <1%
- Maximum Solubility at 80° C. ([2]; in Oleyl alcohol): <1%
- Maximum Solubility at RT ([2]; in Oleyl alcohol): <1%
- Max. Solubility at RT after heating at 80° C. ([2]; in Olive oil): <1%
- Maximum Solubility at 80° C. ([2]; in Olive oil): <1%
- Maximum Solubility at RT ([2]; in Olive oil): <1%
- Max. Solubility at RT after heating at 80° C. ([2]; in PPG-15 stearyl ether): <1%
- Maximum Solubility at 80° C. ([2]; in PPG-15 stearyl ether): <1%
- Maximum Solubility at RT ([2]; in PPG-15 stearyl ether): <1%
- Max. Solubility at RT after heating at 80° C. ([2]; in Polyethylene glycol 200): ~3%
- Maximum Solubility at 80° C. ([2]; in Polyethylene glycol 200): ~6%
- Maximum Solubility at RT ([2]; in Polyethylene glycol 200): <1%
- Max. Solubility at RT after heating at 80° C. ([2]; in Polyethylene glycol 400): <1%
- Maximum Solubility at 80° C. ([2]; in Polyethylene glycol 400): <1%
- Maximum Solubility at RT ([2]; in Polyethylene glycol 400): <1%
- Max. Solubility at RT after heating at 80° C. ([2]; in Propylene glycol): >8%
- Maximum Solubility at 80° C. ([2]; in Propylene glycol): >8%
- Maximum Solubility at RT ([2]; in Propylene glycol): <1%
- Max. Solubility at RT after heating at 80° C. ([2]; in Sodium pyroglutamic acid): <1%
- Maximum Solubility at 80° C. ([2]; in Sodium pyroglutamic acid): <1%
- Maximum Solubility at RT ([2]; in Sodium pyroglutamic acid): <1%
- Max. Solubility at RT after heating at 80° C. ([2]; in Soybean oil): <1%
- Maximum Solubility at 80° C. ([2]; in Soybean oil): <1%
- Maximum Solubility at RT ([2]; in Soybean oil): <1%
- Max. Solubility at RT after heating at 80° C. ([2]; in Transcutol): ~2%
- Maximum Solubility at 80° C. ([2]; in Transcutol): ~2%
- Maximum Solubility at RT ([2]; in Transcutol): <1%
- Max. Solubility at RT after heating at 80° C. ([2]; in Water): ~1%
- Maximum Solubility at 80° C. ([2]; in Water): ~1%
- Maximum Solubility at RT ([2]; in Water): <1%
- Dissolution in hydrophilic solvents ([2]; propylene glycol (after heating), ethanol, dimethyl sulfoxide and polyethylene glycol 200 (after heating)): dissolved well
